We go through 4 compounds from patent US20170000132A1, “BENZOXABOROLE FUNGICIDES” (SYNGENTA PARTICIPATIONS AG, priority 2013, published 2017).

For one test, the system named is Puccinia recondita. The test is described as follows: Puccinia recondita / wheat plants, spray chamber. The format is in vivo. Conditions: 20 ppm; 1 week old wheat plants cv. Arina, sprayed 2 days before inoculation, assessed 10 days after inoculation. How it is done:
Fungicidal Activity Against Puccinia recondita/Wheat 1 week old wheat plants cv. Arina were treated with the formulated test compound in a spray chamber. Two days after application wheat plants were inoculated by spraying a spore suspension (1×105 uredospores/ml) on the test plants. After an incubation period of 1 day at […] and 95% r. h. plants were kept for 9 days at […] and 60% r.h. in a greenhouse. The disease incidence was assessed 10 days after inoculation.

The test system of test [1] is Giberella zeae (Fusarium graminearum). The format is in vivo. As to conditions: 200 ppm; wheat spikelets, preventative, assessed 6 dpi; compared to untreated control.
Test [2] has as its system Monographella nivale (Microdochium nivale). The test can be described thus: Monographella nivale / wheat pouch test with infected seeds. As to conditions: 60 ppm; infected wheat seeds cv. Arina in pouch, 4 weeks after sowing; compared to untreated control. It counts as in vivo, M. nivale. How it is done:
Fungicidal Activity Against Monographella nivale (Microdochium nivale)/Wheat
Formulated test compound is applied into a pouch which was previously equipped with a filter paper. After the application wheat seeds cv. Arina infected with M. nivale are sown into the upper fault of the filter paper. The pouches are then incubated for 7 days in the dark at 7° C./5° C. (day/night) and 80% r. h. After 1 week light is supplied at the same temperature cycle. Another two weeks later plants were transferred to 17° C./16° C. (day/night) and 80% r. H. The disease incidence is assessed 4 weeks after sowing.

For the next test, the system named is Phytophthora infestans. It counts as in vivo. Conditions: 200 ppm; tomato leaf disks, preventative; compared to untreated control.

Turning to `OB1OCc2cc(Cl)c(C=NOCC=C(Cl)Cl)cc21` (single isomer, unassigned) [Compound 50], the “disease control (disease incidence)” value in the test on Puccinia recondita is “at least 80%”. On to `COC(=O)Cc1ccccc1CON=Cc1cc2c(cc1Cl)COB2O` (single isomer, unassigned) [Compound 59], for which the disease control entry in test [1] is on record as “at least 80%”. For the compound `CCOC(=O)CNN=Cc1cc2c(cc1Cl)COB2O` (single isomer, unassigned) [Compound 70], the “disease control (disease incidence)” value in test [2] is “at least 80%”. Consider `CNC(=S)NN=Cc1cc(Cl)cc2c1B(O)OC2` (single isomer, unassigned) [Compound 224], for which, in the test with Phytophthora infestans, the disease control result is recorded as “at least 80%”.
